Molecular target: GTPase KRas [G12C] (Homo sapiens, UniProt P01116, G12C)
Test: KRAS G12C-GDP Exchange Assay
Protocol: 1. […] 2. […] The IC50 (median inhibitory concentration) of the compound was obtained by the following non-linear fitting formula: Y=Bottom+(Top−Bottom)/(1+10^((Log IC50−X)*Hill Slope)), and the data were analyzed by Graphpad 6-0 software.

Sequence of GTPase KRas [G12C] (P01116 whole entry G12C): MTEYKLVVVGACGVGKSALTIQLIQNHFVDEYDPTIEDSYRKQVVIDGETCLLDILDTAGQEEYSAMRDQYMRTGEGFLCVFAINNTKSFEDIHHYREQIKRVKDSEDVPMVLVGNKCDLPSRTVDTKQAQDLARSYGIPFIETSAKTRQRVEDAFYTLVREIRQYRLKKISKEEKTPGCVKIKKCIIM

IC50: 1.44 nM
SMILES: C=CC(=O)N1CCN(c2nc(OC[C@@H]3CCCN3C)nc3cc(-c4cccc5cccc(Cl)c45)c(F)cc23)C[C@@H]1CC#N [US20240109893, Example 394]

Source: BindingDB's records for patent US20240109893 (Shanghai Kechow Pharma, 2024)
